Values of other authors as cited in article PMC2924185 (Journal of the American Chemical Society, 2010).

System: panel of human protein kinases
Settings: for selectivity score: judged by similar criteria

Compound | potency among Src-family kinases (in words) | selectivity score
Cc1ccc(-c2nn(C(C)(C)C)c3ncnc(N)c23)cc1 [PP1] | significantly more potent against Src-family members Fyn, Hck, and Lyn than against Src itself | 
CC(C)(C)n1nc(-c2ccc(Cl)cc2)c2c(N)ncnc21 [PP2] | significantly more potent against Src-family members Fyn, Hck, and Lyn than against Src itself | 
CNC(=O)c1cc(Oc2ccc(NC(=O)Nc3ccc(Cl)c(C(F)(F)F)c3)cc2)ccn1 [sorafenib] |  | 0.10
CN[C@@H]1C[C@H]2O[C@@](C)([C@@H]1OC)n1c3ccccc3c3c4c(c5c6ccccc6n2c5c31)C(=O)NC4 [staurosporine] |  | 0.50
